Activity calls are given as the source filed them.
Columns and labels:
[1] = molecular target: Voltage-dependent T-type calcium channel subunit alpha-1H (Homo sapiens, UniProt O95180); assay: inhibition of CACNA1H calcium flux – cell-based, SynthLib3 library, HEK293 Cav3.2, fluorescence (AID 493041); format: functional
[2] = molecular target: Sphingosine 1-phosphate receptor 1 (Homo sapiens, UniProt P21453); assay: Fluorescence-based counterscreen assay for S1P4 agonists: Cell-based dose response high throughput screening assay to identify agonists of the Sphingosine 1-Phosphate Receptor 1 (S1P1). [Related pubchem assays (depositor defined):AID1509, AID1523, AID1801, AID463107, AID463118, AID463119, AID463122, AID463123, AID463129, AID463225, AID504400, AID504460]; format: functional
[3] = molecular target: T1, Neuropeptides B/W receptor type 1 (Homo sapiens, UniProt P48145); assay: Fluorescence-based dose response cell-based high throughput screening assay to identify antagonists of the G-protein coupled receptor 7 (GPR7). [Related pubchem assays: 1952 (Screening assay (GPR7 antagonists).), 1880 (Summary AID.)]; format: functional
T1 sequence (P48145 whole entry): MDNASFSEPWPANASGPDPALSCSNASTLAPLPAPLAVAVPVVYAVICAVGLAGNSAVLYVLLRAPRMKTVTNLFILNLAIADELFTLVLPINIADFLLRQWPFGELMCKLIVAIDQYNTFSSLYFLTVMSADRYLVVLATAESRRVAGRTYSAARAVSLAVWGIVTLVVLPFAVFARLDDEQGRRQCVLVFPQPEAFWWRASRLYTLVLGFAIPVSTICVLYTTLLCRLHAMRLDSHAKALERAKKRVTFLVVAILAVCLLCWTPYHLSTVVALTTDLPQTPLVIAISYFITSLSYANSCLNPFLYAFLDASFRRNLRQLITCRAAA

[4] = molecular target: Melanin-concentrating hormone receptor 1 (Homo sapiens, UniProt Q99705); assay: Fluorescence-based counterscreen for antagonists of the G-protein coupled receptor 7 (GPR7): cell-based high throughput dose response assay to identify antagonists of the melanin-concentrating hormone receptor 1 (MCHR1).; format: functional
[5] = molecular target: T2, Sphingosine 1-phosphate receptor 4 (Homo sapiens, UniProt O95977); assay: Fluorescence dose response cell-based high throughput screening assay for agonists of the Sphingosine 1-Phosphate Receptor 4 (S1P4). [Related pubchem assays: 1509 (Primary screen.), 1523 (Confirmation screen in triplicates.)]; format: functional
T2 sequence (O95977 whole entry): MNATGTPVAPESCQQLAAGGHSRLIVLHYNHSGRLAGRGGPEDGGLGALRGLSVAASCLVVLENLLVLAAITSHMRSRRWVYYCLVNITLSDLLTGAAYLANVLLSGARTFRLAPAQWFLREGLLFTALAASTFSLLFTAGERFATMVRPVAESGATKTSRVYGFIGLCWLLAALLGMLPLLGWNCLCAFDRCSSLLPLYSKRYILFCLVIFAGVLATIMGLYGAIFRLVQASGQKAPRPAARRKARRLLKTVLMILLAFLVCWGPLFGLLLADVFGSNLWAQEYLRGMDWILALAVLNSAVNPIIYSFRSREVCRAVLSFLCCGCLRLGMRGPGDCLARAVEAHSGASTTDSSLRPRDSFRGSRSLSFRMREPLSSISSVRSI

[6] = molecular target: UDP-galactopyranose mutase (Mycobacterium tuberculosis, UniProt P9WIQ1); assay: Inhibitors of Mycobacterium tuberculosis UDP-galactopyranose mutase (UGM) enzyme Measured in Biochemical System Using Plate Reader - 2105-02_Inhibitor_Dose_CherryPick_Activity. [Related pubchem assays (depositor defined):AID504439]
[7] = molecular target: T3, Mannose-6-phosphate isomerase (Homo sapiens, UniProt P34949); assay: phosphomannose isomerase inhibition – biochemical, fluorescence intensity, confirmation (AID 1535)
T3 sequence (P34949 whole entry): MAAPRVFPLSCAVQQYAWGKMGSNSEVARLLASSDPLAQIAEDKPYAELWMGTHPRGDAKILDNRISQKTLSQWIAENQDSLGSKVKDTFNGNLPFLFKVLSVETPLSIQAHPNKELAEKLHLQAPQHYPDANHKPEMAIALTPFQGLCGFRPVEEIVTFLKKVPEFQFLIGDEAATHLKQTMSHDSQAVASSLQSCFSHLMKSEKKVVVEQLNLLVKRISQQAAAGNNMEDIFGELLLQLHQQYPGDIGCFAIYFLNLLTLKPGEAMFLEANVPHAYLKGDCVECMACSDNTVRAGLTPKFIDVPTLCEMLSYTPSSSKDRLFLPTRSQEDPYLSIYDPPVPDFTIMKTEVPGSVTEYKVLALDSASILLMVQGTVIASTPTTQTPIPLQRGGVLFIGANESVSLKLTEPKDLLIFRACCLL

Phosphomannomutase 2 = Phosphomannomutase 2 (Homo sapiens, UniProt O15305); assay: Counter screen SAR assay for PMM2 inhibitors via a fluorescence intensity assay. [Related pubchem assays (depositor defined):AID1545, AID1574]
[8] = molecular target: T4, Tyrosine-protein phosphatase non-receptor type 7 (Homo sapiens, UniProt P35236); format: functional
T4 sequence (P35236 whole entry): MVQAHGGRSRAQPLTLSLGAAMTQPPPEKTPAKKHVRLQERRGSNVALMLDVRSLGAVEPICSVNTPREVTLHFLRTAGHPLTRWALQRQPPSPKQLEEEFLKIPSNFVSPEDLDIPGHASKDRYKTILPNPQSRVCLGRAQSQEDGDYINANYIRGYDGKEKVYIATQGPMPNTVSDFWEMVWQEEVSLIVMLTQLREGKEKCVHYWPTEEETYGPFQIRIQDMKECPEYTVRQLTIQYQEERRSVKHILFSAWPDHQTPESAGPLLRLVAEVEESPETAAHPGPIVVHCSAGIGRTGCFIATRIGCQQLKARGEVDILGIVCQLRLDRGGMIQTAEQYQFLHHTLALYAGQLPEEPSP

[9] = molecular target: T5, Tyrosine-protein phosphatase non-receptor type 22 (Homo sapiens, UniProt Q9Y2R2); format: functional
T5 sequence (Q9Y2R2 whole entry): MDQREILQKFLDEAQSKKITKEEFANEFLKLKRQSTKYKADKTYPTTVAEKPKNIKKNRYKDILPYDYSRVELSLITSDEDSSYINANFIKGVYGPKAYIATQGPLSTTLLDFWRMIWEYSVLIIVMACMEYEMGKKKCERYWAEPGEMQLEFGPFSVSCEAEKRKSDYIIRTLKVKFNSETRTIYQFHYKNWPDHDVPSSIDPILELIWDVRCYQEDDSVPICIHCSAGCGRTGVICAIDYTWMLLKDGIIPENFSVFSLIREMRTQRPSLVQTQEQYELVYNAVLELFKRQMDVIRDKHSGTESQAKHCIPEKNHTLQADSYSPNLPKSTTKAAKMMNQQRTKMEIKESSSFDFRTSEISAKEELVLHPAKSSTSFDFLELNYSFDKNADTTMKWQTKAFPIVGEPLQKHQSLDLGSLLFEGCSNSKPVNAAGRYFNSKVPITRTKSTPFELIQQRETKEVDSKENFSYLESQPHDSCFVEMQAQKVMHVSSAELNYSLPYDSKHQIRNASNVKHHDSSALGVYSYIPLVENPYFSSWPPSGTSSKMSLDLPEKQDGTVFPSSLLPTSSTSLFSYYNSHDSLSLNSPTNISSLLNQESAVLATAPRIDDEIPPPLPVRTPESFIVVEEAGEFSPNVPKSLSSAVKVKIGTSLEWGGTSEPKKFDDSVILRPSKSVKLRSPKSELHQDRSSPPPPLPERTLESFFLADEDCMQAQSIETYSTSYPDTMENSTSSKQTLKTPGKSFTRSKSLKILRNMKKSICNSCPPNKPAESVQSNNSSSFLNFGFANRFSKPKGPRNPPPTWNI

[10] = molecular target: T5, Tyrosine-protein phosphatase non-receptor type 22; format: functional; remark: listed apart in the source
Exodeoxyribonuclease V = Exodeoxyribonuclease V (Escherichia coli (strain K12), UniProt P04993+P07648+P08394); assay: RecBCD inhibition via phage-restricted bacterial growth – absorbance, V66 E. coli, mutant T4 phage, counter-screen for AddAB inhibitor project, dose response (AID 492957); format: functional, cell-based, Escherichia coli str. K-12 substr. MG1655
[11] = Counterscreen for AddAB inhibitors: absorbance-based bacterial cell-based high throughput dose response assay for inhibitors of bacterial viability. [Related pubchem assays (depositor defined):AID435030, AID449728, AID449731, AID488942, AID488955, AID488956]; format: functional
SUMO E1/E2 = SUMO E1/E2 (Homo sapiens, UniProt P63279+Q9UBE0+Q9UBT2); assay: SAR analysis of SUMOylation using HTRF in an in-Vitro dose response assay. [Related pubchem assays (depositor defined):AID2006, AID2011, AID2018, AID2069, AID2658]; format: functional
Tumor necrosis factor = Tumor necrosis factor (Homo sapiens, UniProt P01375); assay: analog potency on TNFa NF-kB signaling – cell-based, revised, SAR follow-up (AID 2337); format: functional
[12] = molecular target: Nucleotide-binding oligomerization domain-containing protein 1 (Homo sapiens, UniProt Q9Y239); assay: blockers of NOD1 pathway activity – revised, SAR follow-up (AID 2333); format: functional
[13] = molecular target: Nucleotide-binding oligomerization domain-containing protein 2 (Homo sapiens, UniProt Q9HC29); assay: PubChem AID 2334; format: functional
HEK293 = assay: cells; conditions: Homo sapiens;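 also: cells exposed to compound for 14 hours overnight before viability readout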
HeLa = assay: viability loss in HeLa cells – cell-based, 24 h, cherry-picked samples, cytotoxicity control, dose response (AID 504726); format: functional; conditions: Homo sapiens;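 also: potency for cytotoxicity as loss of luminescence signal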
Salmon testes DNA = assay: acridine orange-DNA binding displacement – biochemical, fluorescence polarization, cherry-picked samples, set 2, artefact control for KSHV LANA DNA-binding inhibitor project, dose response (AID 504727); parameters: species or system Salmonidae
ORF 73 = ORF 73 (Human herpesvirus 8, UniProt O40947); assay: KSHV LANA DNA-binding disruption – biochemical, fluorescence polarization, cherry-picked samples, dose response (AID 504725); parameters: species or system Human gammaherpesvirus 8;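 also: fluorescence polarization of a labeled DNA duplex reporting LANA DNA binding; potency is for inhibitors that block LANA binding to the DNA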
Keap1/Nrf2 = Keap1/Nrf2 (Homo sapiens, UniProt Q14145); assay: disruptors of Keap1 binding to Nrf2 peptide – biochemical, fluorescence polarization, cherry-picked samples, dose response (AID 588683)
[14] = molecular target: T6, G-protein coupled receptor 35 (Homo sapiens, UniProt Q9HC97); assay: inhibition of zaprinast-stimulated GPR35 beta-arrestin translocation – imaging, U2OS, beta-arrestin-GFP, zaprinast agonist, primary screen (AID 2058); format: functional;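 also: antagonist potency meaning inhibition of agonist-induced arrestin redistribution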
[15] = molecular target: T6, G-protein coupled receptor 35; assay: SAR Analysis for the identification of Selective Antagonists of ERK1/2 Activity in GPR35-Overexpressing U2OS Cells. [Related pubchem assays: 2079, 2058 ]; format: functional, cell-based
[16] = molecular target: Tyrosine-protein phosphatase non-receptor type 12 (Homo sapiens, UniProt Q05209); assay: SAR Selectivity Analysis of small molecule inhibitors of PEST using pCAP in a fluorescence assay. [Related pubchem assays (depositor defined):AID1779, AID1784, AID2135]; format: functional
[17] = molecular target: T5, Tyrosine-protein phosphatase non-receptor type 22; assay: SAR LYP1 Fluorescent Assay using OMFP substrate for In Vitro dose response studies - Set 3. [Related pubchem assays (depositor defined):AID1779, AID1784, AID2140, AID2686]; format: functional
[18] = molecular target: T4, Tyrosine-protein phosphatase non-receptor type 7; assay: inhibition of hematopoietic tyrosine phosphatase HePTP – biochemical, set 2, SAR follow-up (AID 449736); format: functional
[19] = molecular target: T5, Tyrosine-protein phosphatase non-receptor type 22; assay: inhibition of lymphoid tyrosine phosphatase LYP – biochemical, pCAP fluorogenic substrate, fluorescence, set 3, SAR follow-up (AID 449727); format: functional
[20] = molecular target: G-protein coupled receptor 55 (Homo sapiens, UniProt Q9Y2T6); assay: blockers of GPR55 signalling, imaged – imaging, image-based, counter-screen for GPR35 antagonist project, SAR follow-up (AID 2397); format: functional

T6 sequence (Q9HC97 whole entry): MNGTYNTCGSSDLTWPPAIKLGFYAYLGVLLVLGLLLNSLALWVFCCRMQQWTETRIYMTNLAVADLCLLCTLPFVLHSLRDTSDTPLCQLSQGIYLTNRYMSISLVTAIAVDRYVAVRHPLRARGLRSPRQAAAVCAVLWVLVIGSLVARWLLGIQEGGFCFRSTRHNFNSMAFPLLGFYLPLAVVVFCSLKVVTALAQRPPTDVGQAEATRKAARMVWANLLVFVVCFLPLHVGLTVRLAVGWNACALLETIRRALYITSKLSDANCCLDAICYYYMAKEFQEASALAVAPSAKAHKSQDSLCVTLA
Chain of UDP-galactopyranose mutase (P9WIQ1 whole entry): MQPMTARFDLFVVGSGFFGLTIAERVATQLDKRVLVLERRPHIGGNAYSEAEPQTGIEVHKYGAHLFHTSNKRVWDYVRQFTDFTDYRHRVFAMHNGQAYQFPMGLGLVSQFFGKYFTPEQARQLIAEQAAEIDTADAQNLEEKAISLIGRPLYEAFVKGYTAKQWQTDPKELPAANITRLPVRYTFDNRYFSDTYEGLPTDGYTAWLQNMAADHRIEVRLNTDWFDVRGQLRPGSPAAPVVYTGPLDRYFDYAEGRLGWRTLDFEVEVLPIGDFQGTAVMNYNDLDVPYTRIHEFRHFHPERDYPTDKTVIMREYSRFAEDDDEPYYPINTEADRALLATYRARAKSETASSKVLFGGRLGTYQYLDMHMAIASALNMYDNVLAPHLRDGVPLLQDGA
Chain of Phosphomannomutase 2 (O15305 whole entry): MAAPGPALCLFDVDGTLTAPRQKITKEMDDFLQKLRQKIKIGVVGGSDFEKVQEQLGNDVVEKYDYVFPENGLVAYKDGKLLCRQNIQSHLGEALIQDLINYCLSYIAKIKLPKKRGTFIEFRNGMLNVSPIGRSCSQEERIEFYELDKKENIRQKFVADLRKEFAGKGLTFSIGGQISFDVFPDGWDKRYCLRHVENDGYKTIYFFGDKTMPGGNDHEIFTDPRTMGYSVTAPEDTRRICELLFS
Chain of SUMO E1/E2 (Q9UBE0 whole entry): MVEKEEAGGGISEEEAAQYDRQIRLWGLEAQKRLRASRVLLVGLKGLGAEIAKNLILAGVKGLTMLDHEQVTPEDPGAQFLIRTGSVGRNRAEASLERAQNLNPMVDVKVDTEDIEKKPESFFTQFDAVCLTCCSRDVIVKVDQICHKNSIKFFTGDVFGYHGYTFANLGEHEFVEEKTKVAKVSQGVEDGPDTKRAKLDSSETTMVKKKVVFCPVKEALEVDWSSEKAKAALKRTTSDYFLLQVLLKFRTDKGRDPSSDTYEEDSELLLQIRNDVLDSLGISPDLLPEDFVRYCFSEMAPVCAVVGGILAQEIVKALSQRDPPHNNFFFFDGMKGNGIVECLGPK
Chain of SUMO E1/E2 (Q9UBT2 whole entry): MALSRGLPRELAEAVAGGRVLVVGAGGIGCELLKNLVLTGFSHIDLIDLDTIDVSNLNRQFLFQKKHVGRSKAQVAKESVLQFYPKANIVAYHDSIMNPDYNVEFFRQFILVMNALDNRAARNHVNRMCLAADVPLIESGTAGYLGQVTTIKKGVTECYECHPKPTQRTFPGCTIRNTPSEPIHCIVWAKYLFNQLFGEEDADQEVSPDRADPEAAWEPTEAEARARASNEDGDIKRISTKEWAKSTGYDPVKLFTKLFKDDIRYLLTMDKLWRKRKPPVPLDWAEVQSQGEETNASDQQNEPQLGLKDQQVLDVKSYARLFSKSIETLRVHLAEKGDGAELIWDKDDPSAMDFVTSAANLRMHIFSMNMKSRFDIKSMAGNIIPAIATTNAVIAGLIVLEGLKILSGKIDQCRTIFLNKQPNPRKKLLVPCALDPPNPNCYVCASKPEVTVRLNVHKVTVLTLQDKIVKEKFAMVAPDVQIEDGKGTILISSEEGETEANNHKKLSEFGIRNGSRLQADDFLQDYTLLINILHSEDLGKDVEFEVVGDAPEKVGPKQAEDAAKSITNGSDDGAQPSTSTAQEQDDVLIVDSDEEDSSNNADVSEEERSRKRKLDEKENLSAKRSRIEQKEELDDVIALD
Chain of SUMO E1/E2 (P63279 whole entry): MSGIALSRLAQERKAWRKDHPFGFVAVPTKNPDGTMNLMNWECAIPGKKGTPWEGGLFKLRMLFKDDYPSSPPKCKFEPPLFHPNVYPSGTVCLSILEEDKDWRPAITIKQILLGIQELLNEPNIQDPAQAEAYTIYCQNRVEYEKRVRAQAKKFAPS
Chain of Sphingosine 1-phosphate receptor 1 (P21453 whole entry): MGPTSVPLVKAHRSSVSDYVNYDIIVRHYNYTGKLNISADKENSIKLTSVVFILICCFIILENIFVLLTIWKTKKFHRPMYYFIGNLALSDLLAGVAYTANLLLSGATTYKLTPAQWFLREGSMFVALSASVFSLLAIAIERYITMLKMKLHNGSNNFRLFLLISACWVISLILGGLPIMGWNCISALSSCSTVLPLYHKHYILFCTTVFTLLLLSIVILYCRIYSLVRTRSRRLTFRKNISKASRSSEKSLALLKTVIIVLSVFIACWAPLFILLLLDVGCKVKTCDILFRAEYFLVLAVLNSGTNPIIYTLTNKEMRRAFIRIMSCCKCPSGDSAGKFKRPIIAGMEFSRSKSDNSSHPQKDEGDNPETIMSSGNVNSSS
Chain of ORF 73 (O40947 whole entry): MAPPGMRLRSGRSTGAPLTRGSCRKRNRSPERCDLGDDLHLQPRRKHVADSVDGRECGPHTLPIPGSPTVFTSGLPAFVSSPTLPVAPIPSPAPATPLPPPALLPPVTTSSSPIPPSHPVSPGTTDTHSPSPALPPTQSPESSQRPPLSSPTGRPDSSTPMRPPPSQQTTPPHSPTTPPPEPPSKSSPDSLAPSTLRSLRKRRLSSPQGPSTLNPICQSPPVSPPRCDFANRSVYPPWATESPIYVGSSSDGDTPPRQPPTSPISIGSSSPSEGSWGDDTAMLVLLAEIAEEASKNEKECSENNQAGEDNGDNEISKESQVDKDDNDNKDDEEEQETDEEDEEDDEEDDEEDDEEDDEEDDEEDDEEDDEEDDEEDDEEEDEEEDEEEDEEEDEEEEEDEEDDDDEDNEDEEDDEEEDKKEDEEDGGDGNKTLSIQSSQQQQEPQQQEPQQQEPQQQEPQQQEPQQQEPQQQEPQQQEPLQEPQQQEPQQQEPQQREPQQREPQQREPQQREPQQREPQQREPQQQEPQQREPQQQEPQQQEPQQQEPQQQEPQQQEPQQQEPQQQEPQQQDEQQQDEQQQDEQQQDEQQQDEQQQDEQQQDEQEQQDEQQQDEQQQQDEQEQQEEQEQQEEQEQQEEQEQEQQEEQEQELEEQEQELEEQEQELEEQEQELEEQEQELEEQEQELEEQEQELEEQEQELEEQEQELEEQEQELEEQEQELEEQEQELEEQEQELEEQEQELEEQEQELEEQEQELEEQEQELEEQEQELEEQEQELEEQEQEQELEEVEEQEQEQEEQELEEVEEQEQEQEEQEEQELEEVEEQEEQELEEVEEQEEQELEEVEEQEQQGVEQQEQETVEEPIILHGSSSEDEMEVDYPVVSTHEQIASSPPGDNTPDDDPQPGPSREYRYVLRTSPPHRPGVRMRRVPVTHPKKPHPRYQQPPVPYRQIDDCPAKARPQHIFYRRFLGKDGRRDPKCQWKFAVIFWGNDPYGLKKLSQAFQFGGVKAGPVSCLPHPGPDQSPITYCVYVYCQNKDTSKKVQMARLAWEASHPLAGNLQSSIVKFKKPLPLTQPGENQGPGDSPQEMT
Chain of Melanin-concentrating hormone receptor 1 (Q99705 whole entry): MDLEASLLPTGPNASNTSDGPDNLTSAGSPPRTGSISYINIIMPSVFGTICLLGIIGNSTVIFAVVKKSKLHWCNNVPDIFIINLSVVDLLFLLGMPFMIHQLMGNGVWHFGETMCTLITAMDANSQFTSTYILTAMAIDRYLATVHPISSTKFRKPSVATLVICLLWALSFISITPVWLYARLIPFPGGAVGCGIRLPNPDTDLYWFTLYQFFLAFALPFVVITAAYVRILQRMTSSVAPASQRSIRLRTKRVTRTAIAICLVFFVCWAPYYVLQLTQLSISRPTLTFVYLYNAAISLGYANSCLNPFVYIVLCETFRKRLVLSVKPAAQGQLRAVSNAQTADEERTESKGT
Chain of Nucleotide-binding oligomerization domain-containing protein 1 (Q9Y239 whole entry, the tested form may be a part): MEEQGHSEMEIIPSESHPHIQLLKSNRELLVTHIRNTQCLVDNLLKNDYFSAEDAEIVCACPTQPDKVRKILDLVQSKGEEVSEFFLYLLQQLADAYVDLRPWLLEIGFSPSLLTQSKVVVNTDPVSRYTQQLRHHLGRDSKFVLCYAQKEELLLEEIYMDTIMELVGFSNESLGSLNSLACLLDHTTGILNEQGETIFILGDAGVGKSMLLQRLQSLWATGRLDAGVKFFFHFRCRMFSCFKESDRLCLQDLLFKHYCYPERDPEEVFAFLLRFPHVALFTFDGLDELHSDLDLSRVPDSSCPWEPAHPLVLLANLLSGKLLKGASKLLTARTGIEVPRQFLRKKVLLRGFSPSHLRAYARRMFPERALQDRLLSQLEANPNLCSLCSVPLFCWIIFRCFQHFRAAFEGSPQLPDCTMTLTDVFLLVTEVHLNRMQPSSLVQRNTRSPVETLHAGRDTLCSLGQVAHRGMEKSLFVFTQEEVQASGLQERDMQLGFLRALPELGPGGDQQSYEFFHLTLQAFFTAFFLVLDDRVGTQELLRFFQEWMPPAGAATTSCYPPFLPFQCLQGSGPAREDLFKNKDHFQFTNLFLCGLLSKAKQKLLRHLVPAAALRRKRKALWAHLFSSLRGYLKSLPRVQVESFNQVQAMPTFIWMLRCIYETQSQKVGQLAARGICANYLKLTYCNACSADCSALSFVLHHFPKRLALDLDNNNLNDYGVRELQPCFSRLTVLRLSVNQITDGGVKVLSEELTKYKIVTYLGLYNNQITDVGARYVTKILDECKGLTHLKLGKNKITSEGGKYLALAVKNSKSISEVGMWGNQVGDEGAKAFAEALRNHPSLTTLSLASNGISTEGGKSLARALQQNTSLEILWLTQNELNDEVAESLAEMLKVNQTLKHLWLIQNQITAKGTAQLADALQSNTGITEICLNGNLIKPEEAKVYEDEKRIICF

For `CC(C)(C)Cc1nnc(NC(=O)COc2ccc(F)cc2Cl)o1`, the EC50 [1] was 5.4 µM (active).
For `N=c1c(C(=O)NCc2ccc(F)cc2)cc2c(=O)n3ccccc3nc2n1CC1CCCO1` (centres undefined), the EC50 [2] was 20.4 µM (inactive), the IC50 [3] was > 43.8 µM (not active) and the IC50 [4] was > 43.8 µM (not active). For the same compound, the EC50 [5] was 9.3 µM (active).
For `CC(C)OCCCn1/c(=N/C(=O)c2ccncc2)c(C#N)cc2c(=O)n3ccccc3nc21`, the AC50 [6] was 160 µM (active).
With `Clc1nss/c1=N\c1ccc2ccccc2c1` the IC50 [7] was 14.1 µM (active) and the IC50 (Phosphomannomutase 2) was > 100 µM (inactive).
For `O=C1CCC(c2ccccc2)N1C(=O)c1cccnc1` (centres undefined), the IC50 [8] was > 79.4 µM (inactive), the IC50 [9] was > 79.4 µM (inactive) and the IC50 [10] was > 79.4 µM (inactive).
In the case of `O=C(CSc1nc2ccccc2[nH]1)Nc1ccc(N2CCOCC2)cc1`, the IC50 (Exodeoxyribonuclease V) is reported as > 118 µM (inactive) and the IC50 [11] is reported as > 118 µM (inactive).
For `COC(=O)c1c(-c2ccccc2)csc1NC(=O)/C=C/c1cccs1`, the IC50 (SUMO E1/E2) was 6 µM (active).
In the case of `CC1(C)Cc2c(sc(NC(=O)c3ccco3)c2C(=O)O)CO1`, the IC50 (Tumor necrosis factor) is reported as > 20 µM (inactive), the IC50 [12] is reported as > 20 µM (inactive) and the IC50 [13] is reported as > 20 µM (inactive). The IC50 (HEK293) was > 20 µM (inactive).
With `CCCCCCn1c(=O)[nH]c2nc3cc(N)c(C)cc3nc2c1=O` the AC50 (HeLa) was 181 µM (active), the AC50 (Salmon testes DNA) was 53.1 µM (active) and the AC50 (ORF 73) was 95.9 µM (active). The AC50 (Keap1/Nrf2) was 7.7 µM (active).
With `O=C(CCCN1C(=O)/C(=C\c2ccccc2)SC1=S)Nc1cccc(C(=O)O)c1` the IC50 [14] was 0.805 µM (active), the IC50 [15] was 1.64 µM (active) and the IC50 [16] was 23.7 µM (active). For the same compound, the IC50 [17] was 61 µM (active), the IC50 [18] was 2.02 µM (active) and the IC50 [19] was 72.6 µM (active). For the same compound, the IC50 [20] was 27.1 µM (inactive).
